Where a name gives a salt, the structure may show the parent alone. Read-outs that look alike come from different tables or passages of the source.
Assays:
[1] = system: TGF-beta-induced phosphorylation of Smad2 and Smad3 in Mv1-Lu cells; assay: Inhibition of Smad2/3 phosphorylation in Mv1Lu cells (Example 35A); format: cell-based, mink Mustela vison; conditions: Neogale vison, read-out: TβR activity (Example 35A)
Description: Inhibition of Smad2/3 Phosphorylation in Mv1Lu Cells by TGF-bta Receptor I Kinase Inhibitors
This assay was used to determine the inhibitory potency of compounds on TGF-beta-induced phosphorylation of Smad2 (Ser465/467) and Smad3 (Ser423/425). Mv1-Lu cells (lung epithelial cell line from mink Mustela vison; ATCC number: CCL-64) were seeded in DMEM (Invitrogen) supplemented with 10% fetal bovine serum (Pan Biotech) at a defined cell density in 24-well or 96-well plates (24-well plate: 1.5×10^5 cells per well; 96-well plate: 4×10^4 cells per well). Cell cultures were incubated in DMEM at 37° C. and 10% CO2. On the next day, the medium was replaced and cells were serum-starved for 16-20 hours. The following day, serial dilutions of compounds were added to the wells, pre-incubated for 1.5 hrs before recombinant TGF-beta 1 ligand (final concentration 5 ng/ml; R&D systems) was added. After one hour of ligand stimulation, lysates were prepared and analyzed using an enzyme-linked immunosorbent assay kit (PathScan Phospho-Smad2 Kit, Cell Signaling Technologies). The ELISA detects phosphorylated Smad2 as well as phosphorylated Smad3 with the phospho-specific antibody. TGF-beta stimulated cells and unstimulated cells served as positive and negative controls (100% and background control). The concentration of the vehicle DMSO was kept constant at 0.2% (v/v) in all wells. Dose-response relationships were fitted using curve fitting algorithms of the RS1 statistics software package (Brooks Automation Inc. RS/1—Statistical Tools Handbook. Release 6.2) to determine the concentration at which half-maximal inhibition (IC50) of Smad2/3 phosphorylation was achieved.

GST-ALK5 = target: T1, GST-ALK5 (Homo sapiens, UniProt P36897); assay: In-vitro (enzyme) kinase assay, 384-well flashplate (Example 36); format: biochemical; conditions: read-out: TβR activity (Example 36)
T1 sequence (P36897 34-503): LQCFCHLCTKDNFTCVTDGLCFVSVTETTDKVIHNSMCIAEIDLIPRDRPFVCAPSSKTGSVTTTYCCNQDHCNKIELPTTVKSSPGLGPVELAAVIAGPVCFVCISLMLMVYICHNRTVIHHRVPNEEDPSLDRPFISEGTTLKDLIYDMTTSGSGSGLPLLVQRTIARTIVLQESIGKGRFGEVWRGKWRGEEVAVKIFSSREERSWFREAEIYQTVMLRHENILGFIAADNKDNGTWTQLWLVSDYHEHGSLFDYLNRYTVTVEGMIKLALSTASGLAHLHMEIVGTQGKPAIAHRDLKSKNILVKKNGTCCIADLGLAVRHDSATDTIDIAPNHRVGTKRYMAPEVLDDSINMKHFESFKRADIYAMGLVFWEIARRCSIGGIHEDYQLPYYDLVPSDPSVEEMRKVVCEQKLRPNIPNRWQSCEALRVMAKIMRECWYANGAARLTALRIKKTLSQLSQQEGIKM
Description: In-vitro (Enzyme) Assay for Determination of the Efficacy of Inhibitors of the Inhibition of TGF-beta-Mediated Effects
The kinase assay was carried out as 384-well flashplate assay. 31.2 nM of GST-ALK5, 439 nM of GST-SMAD2 and 3 mM of ATP (with 0.3 μCi of ^33P-ATP/well) were incubated in a total volume of 35 μl (20 mM of HEPES, 10 mM of MgCl2, 5 mM of MnCl2, 1 mM of DTT, 0.1 of BSA, pH 7.4) without or with test substance (5-10 concentrations) at 30° C. for 45 min. The reaction was stopped using 25 μl of 200 mM EDTA solution, filtered with suction at room temperature after 30 min, and the wells were washed with 3 times 100 μl of 0.9% NaCl solution. Radioactivity was measured in the TopCount. The IC50 values were calculated using RS1.

[2] = Mv1-Lu cells, TGF-beta 1 5 ng/ml, phospho-Smad2/3 ELISA
[3] = GST-ALK5, GST-SMAD2 substrate, 3 mM ATP, 30° C., 45 min

| Structure (SMILES) | IC50 [1, 2] [µM] | IC50 (GST-ALK5; [3]) [µM] | also measured |
| --- | --- | --- | --- |
| Cc1ccn(-c2cc(-c3cncc(Br)c3)c3cccnc3n2)n1 [4-(5-Bromo-pyridin-3-yl)-2-(3-methyl-pyrazol-1-yl)-[1,8]naphthyridine] | – | – | IC50 ([1]; Table 2, intermediate, Smad2/3 phosphorylation in Mv1-Lu cells): > 10 µM; IC50 (GST-ALK5; Table 2, intermediate, GST-ALK5 flashplate assay): > 10 µM |
| Fc1ccc(Cl)cc1-c1cc(-c2cncc3ccccc23)c2ccccc2n1 [compound 1, 2-(5-Chloro-2-fluoro-phenyl)-4-isoquinolin-4-yl-quinoline] | 1 to 10 | 1 to 10 | – |
| Fc1ccc(Cl)cc1-c1cc(-c2cncc3ccccc23)c2cccnc2n1 [compound 2, 2-(5-Chloro-2-fluoro-phenyl)-4-isoquinolin-4-yl-[1,8]naphthyridine] | 1 to 10 | 0.1 to 1 | – |
| Cc1cccc(-c2cc(-c3cncc4ccccc34)c3cccnc3n2)n1 [compound 3, 4-Isoquinolin-4-yl-2-(6-methyl-pyridin-2-yl)-[1,8]naphthyridine] | > 10 | 1 to 10 | – |
| Fc1ccc(Cl)cc1-c1cc(-c2cncc(-c3ccccc3)c2)c2cccnc2n1 [compound 4, 2-(5-Chloro-2-fluoro-phenyl)-4-(5-phenyl-pyridin-3-yl)-[1,8]naphthyridine] | 0.1 to 1 | 0.1 to 1 | – |
| Cc1cccc(-c2cc(-c3cncc(-c4ccccc4)c3)c3cccnc3n2)n1 [compound 5, 2-(6-Methyl-pyridin-2-yl)-4-(5-phenyl-pyridin-3-yl)-[1,8]naphthyridine] | 1 to 10 | 0.1 to 1 | – |
| Fc1ccc(Cl)cc1-c1cc(-c2cncc(-c3ccccc3)c2)c2ccccc2n1 [compound 6, 2-(5-Chloro-2-fluoro-phenyl)-4-(5-phenyl-pyridin-3-yl)-quinoline] | > 10 | 1 to 10 | – |
| Cn1cc(-c2cncc(-c3cc(-c4cc(Cl)ccc4F)nc4ncccc34)c2)cn1 [compound 7, 2-(5-chloro-2-fluoro-phenyl)-4-[5-(1-methyl-1H-pyrazol-4-yl)-pyridin-3-yl]-[1,8]naphthyridine] | 0.1 to 1 | < 0.1 | – |
| Cn1cc(-c2cncc(-c3cc(-c4cc(C(F)(F)F)ccc4F)nc4ncccc34)c2)cn1 [compound 8, 2-(2-Fluoro-5-trifluoromethyl-phenyl)-4-[5-(1-methyl-1H-pyrazol-4-yl)-pyridin-3-yl]-[1,8]naphthyridine] | 0.1 to 1 | < 0.1 | – |
| Cn1cc(-c2cncc(-c3cc(-c4cccc(Cl)c4)nc4ncccc34)c2)cn1 [compound 9, 2-(3-Chloro-phenyl)-4-[5-(1-methyl-1H-pyrazol-4-yl)-pyridin-3-yl]-[1,8]naphthyridine] | 1 to 10 | 0.1 to 1 | – |
| Cc1cccc(-c2cc(-c3cncc(-c4cnn(C)c4)c3)c3cccnc3n2)n1 [compound 10, 4-[5-(1-Methyl-1H-pyrazol-4-yl)-pyridin-3-yl]-2-(6-methyl-pyridin-2-yl)-[1,8]naphthyridine] | 1 to 10 | 0.1 to 1 | – |
| Fc1ccc(Cl)cc1-c1cc(-c2cncc(-c3cnn(C4CCNCC4)c3)c2)c2cccnc2n1 [compound 11, 2-(5-chloro-2-fluoro-phenyl)-4-[5-(1-piperidin-4-yl-1H-pyrazol-4-yl)-pyridin-3-yl]-[1,8]naphthyridine dihydrochloride] | – | < 0.1 | IC50 [1]: < 0.1 µM |
| Fc1ccc(Cl)cc1-c1cc(-c2cccc(-c3ccccc3)n2)c2cccnc2n1 [compound 12, 2-(5-Chloro-2-fluoro-phenyl)-4-(6-phenyl-pyridin-2-yl)-[1,8]naphthyridine] | > 10 | > 10 | – |
| Nc1ncc(-c2cnn(C3CCNCC3)c2)cc1-c1cc(-c2cc(Cl)ccc2F)nc2ncccc12 [compound 13, 3-[2-(5-Chloro-2-fluoro-phenyl)-[1,8]naphthyridin-4-yl]-5-(1-piperidin-4-yl-1H-pyrazol-4-yl)-pyridin-2-ylamine dihydrochloride] | – | < 0.1 | IC50 [1]: < 0.1 µM |
| Cn1cc(-c2cncc(-c3cc(-c4cccc(C(F)(F)F)c4)nc4ncccc34)c2)cn1 [compound 14, 4-[5-(1-Methyl-1H-pyrazol-4-yl)-pyridin-3-yl]-2-(3-trifluoromethyl-phenyl)-[1,8]naphthyridine] | 1 to 10 | 0.1 to 1 | – |
| Cn1cc(-c2cncc(-c3cc(-c4ccccc4F)nc4ncccc34)c2)cn1 [compound 15, 2-(2-Fluoro-phenyl)-4-[5-(1-methyl-1H-pyrazol-4-yl)-pyridin-3-yl]-[1,8]naphthyridine] | 0.1 to 1 | < 0.1 | – |
| Cn1cc(-c2cncc(-c3cc(-c4ccc(F)cc4)nc4ncccc34)c2)cn1 [compound 16, 2-(4-Fluoro-phenyl)-4-[5-(1-methyl-1H-pyrazol-4-yl)-pyridin-3-yl]-[1,8]naphthyridine] | 1 to 10 | 0.1 to 1 | – |
| Cn1cc(-c2cncc(-c3cc(-c4cc(F)c(F)cc4F)nc4ncccc34)c2)cn1 [compound 17, 4-[5-(1-Methyl-1H-pyrazol-4-yl)-pyridin-3-yl]-2-(2,4,5-trifluoro-phenyl)-[1,8]naphthyridine] | 1 to 10 | 0.1 to 1 | – |
| Fc1ccc(C(F)(F)F)cc1-c1cc(-c2cncc(-c3cnn(C4CCNCC4)c3)c2)c2cccnc2n1 [compound 18, 2-(2-Fluoro-5-trifluoromethyl-phenyl)-4-[5-(1-piperidin-4-yl-1H-pyrazol-4-yl)-pyridin-3-yl]-[1,8]naphthyridine dihydrochloride] | – | < 0.1 | IC50 [1]: < 0.1 µM |
| OCCn1cc(-c2cncc(-c3cc(-c4ccccc4F)nc4ncccc34)c2)cn1 [compound 40, 2-(4-{5-[2-(2-fluoro-phenyl)-[1,8]naphthyridin-4-yl]-pyridin-3-yl}-pyrazol-1-yl)-ethanol] | 0.1 to 1 | – | – |
| Fc1ccccc1-c1cc(-c2cncc(-c3cnn(CCN4CCOCC4)c3)c2)c2cccnc2n1 [compound 41, 2-(2-Fluoro-phenyl)-4-{5-[1-(2-morpholin-4-yl-ethyl)-1H-pyrazol-4-yl]-pyridin-3-yl}-[1,8]naphthyridine] | 0.1 to 1 | – | – |
| Fc1ccc(Cl)cc1-c1cc(-c2cncc(-c3cn(CCN4CCOCC4)nn3)c2)c2cccnc2n1 [compound 42, 2-(5-chloro-2-fluoro-phenyl)-4-{5-[1-(2-morpholin-4-yl-ethyl)-1H-[1,2,3]triazol-4-yl]-pyridin-3-yl}-[1,8]naphthyridine] | 0.1 to 1 | – | – |
| CN1CCC(c2nc(-c3cncc(-c4cc(-c5ccccc5F)nc5ncccc45)c3)no2)CC1 [compound 60, 2-(2-fluoro-phenyl)-4-{5-[5-(1-methyl-piperidin-4-yl)-[1,2,4]oxadiazol-3-yl]-pyridin-3-yl}-[1,8]naphthyridine] | – | 0.1 to 1 | – |
| Cn1ccc(-c2cncc(-c3cc(-c4ccccc4F)nc4ncccc34)c2)n1 [compound 66, 2-(2-Fluoro-phenyl)-4-[5-(1-methyl-1H-pyrazol-3-yl)-pyridin-3-yl]-[1,8]naphthyridine] | 1 to 10 | – | – |
| Cn1nccc1-c1cncc(-c2cc(-c3ccccc3F)nc3ncccc23)c1 [compound 67, 2-(2-Fluoro-phenyl)-4-[5-(2-methyl-2H-pyrazol-3-yl)-pyridin-3-yl]-[1,8]naphthyridine] | 1 to 10 | – | – |
| CN1CCN(c2ccnc(-c3cncc(-c4cc(-c5ccccc5F)nc5ncccc45)c3)n2)CC1 [compound 70, 2-(2-fluoro-phenyl)-4-{5-[4-(4-methyl-piperazin-1-yl)-pyrimidin-2-yl]-pyridin-3-yl}-[1,8]naphthyridine] | – | 0.1 to 1 | – |

— patent US8912216B2, “Hetaryl-[1,8]naphthyridine derivatives” (Merck Patent GmbH, priority 2010, dated 2014)
